These results are taken from patent publication US11655448B2, “Placenta-derived matrix and methods of preparing and use thereof” (LIFENET HEALTH, priority 2015, dated 2023).

In test [1] the test system is dorsal root ganglia (DRGs). The test is described as follows: Dorsal root ganglia attachment and growth on substrates. In kind it is cell-based. The procedure: The ability for ectodermal cell attachment and growth on HuMATRIX was also assessed using dorsal root ganglia (DRGs). Near 100% attachment of DRGs was observed on HuMATRIX, Laminin, and decellularized placenta with urea extraction, but nearly no DRGs attached to culture plastic alone, with the cells stained for beta-III-tubulin and DAPI to assess the cell morphology.

A further test relates to MCF7 tumor cell. The note with it: reported in the literature; cited from earlier work.

For the molecule Laminin, the “attachment of DRGs” value in test [1] is around 100%.

B1: Placental lactogen: human chorionic sommatomammotropin (aka placental lactogen) found in HuMATRIX (protein, UniProt P0DML2 27-217, looked up)
Chorionic somatomammotropin …: VQTVPLSRLFDHAMLQAHRAHQLAIDTYQEFEETYIPKDQKYSFLHDSQTSFCFSDSIPTPSNMEETQQKSNLELLRISLLLIESWLEPVRFLRSMFANNLVYDTSDSDDYHLLKDLEEGIQTLMGRLEDGSRRTGQILKQTYSKFDTNSHNHDALLKNYGLLYCFRKDMDKVETFLRMVQCRSVEGSCGF
As to B1, the “increase in MCF7 tumor cell proliferation” value in the test with MCF7 tumor cell is given as 4.4 fold.
